Assay results reported in patent US8715668B2, “Antibody selective for a tumor necrosis factor-related apoptosis-inducing ligand receptor DR5 and uses thereof” (The UAB Research Foundation, priority 2000, dated 2014).

Legend:
[1] = test system: CLL B cells; assay: Cytotoxicity to CLL B cells in vitro; assay type: cell-based, human; settings: compared to normal primary B cells
[2] = test system: breast cancer lines; assay: Combined cytotoxicity of TRA-8 with adriamycin; assay type: cell-based, human
[3] = test system: MMP-1, 3, and 13; assay: ELISA of MMP production by RA synovial cells; assay type: cell-based, human; settings: overnight; 50 ng/ml interleukin 1b, 10 ng/ml TNF-α, 50 ng/ml TRAIL, 50 ng/ml TRA-8
Method: Thus, it is possible that TRAIL, like TNF-α, may serve as a pro-inflammatory cytokine. […] The levels of the MMP-1 and MMP-3 in the culture supernatants are determined by the ELISA kits.

[4] = biological target: T1, DR4 (Homo sapiens, UniProt O00220); assay: ELISA binding to immobilized DR4-Ig fusion protein
T1 construct: The soluble recombinant human DR4, DcR1, DcR2, TNFR1, R4, and Fas molecules used are human IgG1 fusion proteins; human IgG1 Fc
T1 sequence (O00220 24-239 limits assumed): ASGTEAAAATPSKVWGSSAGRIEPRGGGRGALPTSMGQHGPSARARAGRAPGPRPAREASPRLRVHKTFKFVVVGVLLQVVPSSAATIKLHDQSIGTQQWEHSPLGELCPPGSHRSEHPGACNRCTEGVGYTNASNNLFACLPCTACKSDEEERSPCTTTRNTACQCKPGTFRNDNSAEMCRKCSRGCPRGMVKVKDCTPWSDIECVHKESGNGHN
Method: ELISA plates are coated with 2 μg/ml of DR4-Ig or DR5-Ig fusion protein overnight. […] The reactions are developed by TMB substrate buffer and measured by the Benchmark Microplate Reader (BioRad). The Kd values are estimated by the one-site binding model of non-linear regression using GraphPad Prism® software (GraphPad Software, San Diego, Calif.).

[5] = test system: Jurkat cells; assay: Jurkat cell viability (ATPLite, MTT, PI exclusion); assay type: cell-based, human; settings: overnight, TRAIL plus crosslinker
Method: (§1) Cell viability is determined using (1) the ATPLite® kit according to the manufacturer's instructions (Packard Instruments, Meriden, Conn.); (2) the MTT Cell proliferation/viability kit (Sigma); or (3) PI staining of dead cells and analyzed by flow cytometry. At end of culture, cells are stained with 10 μg/ml PI and PI negative cells are gated as viable cells. For analysis of condensed nuclei of hepatocytes, cells are stained with 10 ng/ml Hoechst 33352 (Molecular Probes) and analyzed by flow cytometry.

[6] = test system: CEM-6; assay: Apoptosis by ATPLite after overnight incubation; assay type: cell-based, human
Method: as §1

[7] = test system: Daudi; assay: Apoptosis by ATPLite after overnight incubation; assay type: cell-based, human
Method: as §1

[8] = test system: EB-3; assay: Apoptosis by ATPLite after overnight incubation; assay type: cell-based, human
Method: as §1

[9] = test system: H-9; assay: Apoptosis by ATPLite after overnight incubation; assay type: cell-based, human
Method: as §1

[10] = test system: Hs683; assay: Apoptosis by ATPLite after overnight incubation; assay type: cell-based, human
Method: as §1

[11] = test system: Molt-4; assay: Apoptosis by ATPLite after overnight incubation; assay type: cell-based, human
Method: as §1

[12] = test system: Raji; assay: Apoptosis by ATPLite after overnight incubation; assay type: cell-based, human
Method: as §1

[13] = test system: SKW6.4; assay: Apoptosis by ATPLite after overnight incubation; assay type: cell-based, human
Method: as §1

[14] = test system: U251-MG; assay: Apoptosis by ATPLite after overnight incubation; assay type: cell-based, human
Method: as §1

[15] = test system: U87; assay: Apoptosis by ATPLite after overnight incubation; assay type: cell-based, human
Method: as §1

[16] = test system: U937; assay: Apoptosis by ATPLite after overnight incubation; assay type: cell-based, human
Method: as §1

[17] = test system: primary B cells; assay: Apoptosis by ATPLite after overnight incubation; assay type: cell-based, human
Method: as §1

[18] = test system: RA synovial cells; assay: Cell viability of primary cultured RA synovial cells; assay type: cell-based, human; settings: high concentrations (>50 ng/ml)
Source text: (§2) Cell viability is the percentage of the cpm of treated cells versus the cpm of untreated cells.
(§3) The expression of DR5 on a panel of eight primary cultured synovial cells from patients with RA is compared with that on eight primary cultured synovial cells from patients with osteoarthritis (hereinafter referred to as “OA”). The eight human primary RA synovial cell cultures RA-1014, RA-1016, RA-1021, RA-512, RA-707, RA-811, RA-716, and RA-929 are kindly provided by Dr. M. Ohtsuki (Sankyo Co. Ltd., Tokyo, Japan) and cultured in DMEM supplemented with 10% FCS, penicillin, streptomycin, and glutamine. The […] OA synovial cell primary cell cultures are isolated from the synovial tissues of OA patients by a standard collagenase method and cultured under the same conditions. The passage number of all primary cells is under 10. The expression of DR5 is determined by FACs analysis as described in Example 5.

[19] = test system: OA synovial cells; assay: Cell viability of primary cultured OA synovial cells; assay type: cell-based, human; settings: OA72M
Source text: as §2, §3

[20] = test system: normal human hepatocytes; assay: Viability of normal human hepatocytes (ATPLite); assay type: cell-based
Source text: For 24-hour cell viability assays, fresh normal human hepatocytes in 96-well plates were purchased from In Vitro Technology (Baltimore, Md.). […] For 6-hour viability assays, normal hepatocytes or hepatocellular cancer cells are isolated from fresh surgical specimens collected from UAB Tissue Procurement Center. All reagents for isolation of human hepatocytes including hepatocytes perfusion buffer, digest medium, washing medium, and attachment medium were purchased from Gibco. The tissue slides are digested in the Hepatocyte Digest Medium at 37° C. with shaking (50 rpm) for one hour. The isolated hepatocytes are harvested by low speed centrifugation (50 g, 3 min), and washed with the Hepatocyte Washing Medium six times. Single cell suspension of hepatocytes are cultured in the Attachment Medium containing 10% FCS in 96-well Matrigel plates (BD) for six hours. Non-attached hepatocytes are removed by twice washing with pre-warmed attachment medium.

[21] = test system: liver; assay: Induction of hepatitis in vivo by tetracycline-inducible adenoviral vectors; design: species or system B6 mice; settings: Ad/TRAIL inoculated mice; 10 μg soluble human TRAIL
Method: 8-10 week-old female B6 mice are intravenously injected with 10^9 pfu of Ad/hTRAIL with the equal number of Ad/Tet-on. Mice are fed with different concentrations of tetracycline in their drinking water immediately after inoculation of adenoviral vectors. Liver injury is determined by serum levels of AST using an AST diagnostic kit (Sigma). Expression of TRAIL is determined by Northern blot analysis.

[22] = test system: Jurkat cells; assay: Apoptosis-inducing activity of humanized antibody on Jurkat cells (XTT); assay type: cell-based, human; settings: 12 hours; serial 2-fold dilution from 100 ng/ml
Method: Jurkat cells cultured in RPMI1640 medium with 10% FCS (Gibco BRL) at 37° C. for 3 days in the presence of 5% CO2 are dispensed into each well of a 96-well microplate (Sumitomo Bakelite) at 50 μl per well. […] Each of the solutions of the expression products thus adjusted to 100 ng/ml is used to produce serial dilutions by repeating serial 2-fold dilution with RPMI1640 containing 10% FCS. […] After reacting at 37° C. for 12 hours, 50 μl of 25 μM PMS (phenazine methosulfate; Sigma Chemical Co.) containing 1 mg/ml XTT (2,3-bis [2-methoxy-4-nitro-5-sulfophenyl]-2H-tetrazolium-5-carboxyaniride inner salt; Sigma Chemical Co.) is added (final concentrations of 250 μg/ml for XTT and 5 μM for PMS). After incubating for 3 hours, the absorbance at 450 nm of each well is measured to calculate the cell viability by using the reduction ability of mitochondria as the index.
The viability of the cells in each well is calculated according to the following formula: Viability(%)=100×(a−b)/(c−b) wherein “a” is the measurement of a test well, “b” is the measurement of a well with no cells, and “c” is the measurement of a well with no antibody added.
Jurkat cells cultured in RPMI1640 medium with 10% FCS (Gibco BRL) at 37° C. for 3 days in the presence of 5% CO2 are dispensed into each well of a 96-well microplate (Sumitomo Bakelite) at 50 μl per well. […]

`Cn1cc(C2=C(c3cn(CCCN)c4ccccc34)C(=O)NC2=O)c2ccccc21` [BisVIII, Bisindolylmaleimide VIII] was tested. Which “susceptibility of CLL B cells” value [1] did it give?
Its value is “sensitive”.

`COc1cccc2c1C(=O)c1c(O)c3c(c(O)c1C2=O)C[C@@](O)(C(=O)CO)C[C@@H]3O[C@H]1C[C@H](N)[C@H](O)[C@H](C)O1` [adriamycin] was tested. Which “effect on TRA-8-induced apoptosis” value ([2]; high doses of adriamycin) did it give?
The value was “additive effect”.

What about the “effect on TRA-8-induced apoptosis” value ([2]; low doses of adriamycin, some TRA-8 resistant lines) of the same molecule?
Its value is “synergistically enhance”.

With IL-1b: proinflammatory cytokine as the molecule, how does the “production/release of MMPs” value [3] read?
The value was “increased”.

How did the “production/release of MMPs” value [3] turn out when TNF-α was run?
The value was “increased”.

Which “binding activity to DR4” value [4] does the source give for “TRAIL: Soluble recombinant human TRAIL (aa residues 95 to 281) fused to a FLAG-tag, Alexis; used with anti-FLAG crosslinker” here?
Its value is “bound to DR4”.

And the susceptibility to apoptosis [5]?
The susceptibility to apoptosis was “highly susceptible”.

And the susceptibility to apoptosis [6]?
Its susceptibility to apoptosis is “highly susceptible”.

And the susceptibility to apoptosis [7]?
Its susceptibility to apoptosis is “much less susceptible”.

And the susceptibility to apoptosis [8]?
The susceptibility to apoptosis was “very susceptible”.

What about the susceptibility to apoptosis [9] of the same molecule?
The susceptibility to apoptosis was “resistant”.

And the susceptibility to apoptosis [10]?
Its susceptibility to apoptosis is “resistant”.

And the susceptibility to apoptosis [11]?
The susceptibility to apoptosis was “partially susceptible”.

And the susceptibility to apoptosis [12]?
The susceptibility to apoptosis was “very susceptible”.

And the susceptibility to apoptosis [13]?
Its susceptibility to apoptosis is “very susceptible”.

What about the susceptibility to apoptosis [14] of the same molecule?
The susceptibility to apoptosis was “resistant”.

And the susceptibility to apoptosis [15]?
The susceptibility to apoptosis was “exhibited sensitivity”.

What about the susceptibility to apoptosis [16] of the same molecule?
Its susceptibility to apoptosis is “partially susceptible”.

And the susceptibility to apoptosis [17]?
The susceptibility to apoptosis was “did not undergo apoptosis”.

What about the cell death ([18]; RA929) of the same molecule?
The cell death was ~100%.

And the cell death ([18]; RA-716)?
The cell death was ~100%.

What about the cell death ([18]; RA-811) of the same molecule?
The cell death was ~100%.

And the cell death ([18]; RA-1014)?
The cell death was ~100%.

And the susceptibility to apoptosis [19]?
The susceptibility to apoptosis was “completely resistant”.

And the “production/release of MMPs” value [3]?
The value was “not associated with increased release”.

What about the hepatocytes killed ([20]; 6-hour culture period, 500 ng/ml TRAIL) of the same molecule?
The hepatocytes killed was “Over 20%”.

What about the hepatocytes killed ([20]; end of 24-hour culture, 1 μg/ml, TRAIL plus crosslinker) of the same molecule?
Its hepatocytes killed is “more than 80%”.

And the “liver injury after intravenous injection” value [21]?
The value was “did not exhibit increased liver injury”.

B1: humanized TRA-8: humanized TRA-8, cotransfection of pHB14-1 and pSR/M2-1: H2 type heavy chain (SEQ ID No. 31), LM2 light chain (SEQ ID No. 46) (antibody)
VH: EVMLVESGGGLVQPGGSLRLSCAASGFTFSSYVMSWVRQAPGKGLEWVATISSGGSYTYYPDSVKGRFTISRDNAKNTLYLQMNSLRAEDTAVYYCARRGDSMITTDYWGQGTLVTVSS
light: DIVMTQSPSSLSASVGDRVTITCKASQDVGTAVAWYQQKPGKAPKLLIYWASTRHTGVPSRFSGSGSGTDFTLTISSLQPEDFATYYCQQYSSYRTFGQGTKVEIKRTVAAPSVFIFPPSDEQLKSGTASVVCLLNNFYPREAKVQWKVDNALQSGNSQESVTEQDSKDSTYSLSSTLTLSKADYEKHKVYACEVTHQGLSSPVTKSFNRGEC
With B1 as the molecule, how does the induction of apoptosis [22] read?
Its induction of apoptosis is “induce apoptosis”.
